Assay results taken from patent publication US9180174B2, “Conjugates comprising mannan and myelin oligodentrocyte glycoprotein (MOG)” (priority 2008, dated 2015).
Ends that are not written are not given here.

What was measured:
PLP139-151-EAE = test: Prophylactic vaccination before PLP139-151-EAE induction, clinical score; type: in vivo, SJL/J mice; details: FIG. 10; for clinical score (peak): 6-grade scale, 0.5 = weight loss
Experimental: (§1) Groups of female animals (age range 6-10 week old C57BL/6 or SJL/J mice and 12-15 week old Lewis rats) were immunized intra-dermally with 100 μl solution containing 30 μg peptide (MOG35-55) or 50 μg PLP139-151 peptide for mice and 30 μg MBP83-99 for Lewis rats) conjugated to 70 μg oxidized or reduced mannan diluted in bi-carbonate buffer, pH 9.0. As controls, age matched groups of animals were vaccinated with oxidized or reduced mannan alone, saline or 30-50 μg of peptide alone. Three consecutive vaccinations were performed spaced 15 days apart. Fifteen days after the last vaccination EAE was induced.
EAE was induced in SJL/J mice using a standard protocol. 150 μg of PLP139-151 was dissolved in PBS and emulsified in an equal volume of CFA (containing […] of heat killed Mycobacterium Tuberculosis HR37a, Sigma). On Day 0 (day of disease induction), one s.c injection was given by injecting 150 μg PLP139-151/200 μl per mouse in both of the flanks. Each mouse also received 400 ng pertussis toxin (Sigma, P2980) (i.p) dissolved in 200 μl PBS. On day 2, mice were received a booster of pertussis toxin (200 ng pertussis toxin dissolved in 200 μl PBS per mouse) Animals were daily evaluated for clinical signs of disease, starting from day 1 post immunisation, using a 6-grade clinical scale: 0, normal animal; 0.5, weight loss; 1, inability to elevate the tail above the horizontal level, tail weakness; 2, tail paralysis; 3, tail paralysis/hind limb paresis; 4, hind limb paralysis/forelimb weakness; 5, quadriplegia/moribund; 6, death from EAE. Moreover, animals were daily weighted throughout the entire experimental period.

splenocytes [1] = test: T cell priming and proliferation assay, [3H]-thymidine incorporation, ex vivo MOG35-55 recall; type: cell-based, C57BL/6 mice; details: day 25 post EAE induction, versus mannan alone or PBS; FIGS. 7 and 8
Experimental: Isolated splenocytes were cultured for 72 h in 96-well plates in RPMI 1640 (Invitrogen Life Technologies, Gaithersburg, Md.) containing 10% heat-inactivated FCS, 50 μM 2-ME, and increasing concentrations of MOG35-55 peptide. Cells were stimulated in triplicate at 2×10^6 cells/ml in round-bottom, 96-well plates (Costar). Cells were pulsed with 1 μCi/5×10^5 cells [^3H]-thymidine in triplicate (Amersham Radiochemicals) for the last 16 h of culture. [^3H]-thymidine incorporation was measured by liquid scintillation counting (Wallac, Turku, Finland). Results are expressed as the stimulation index (ratio between radioactivity counts of cells cultured in presence of peptide and cells cultured with media alone).

MOG35-55-EAE [2] = test: Prophylactic vaccination before MOG35-55-EAE induction, clinical score and body weight; type: in vivo, C57BL/6 mice; details: for protection from MOG35-55-EAE development (clinical score): three vaccinations 15 days apart, EAE induced 15 days after the last, FIG. 1
splenocytes [3] = test: Cytokines in splenocyte culture supernatants (cytometric bead array, IL-17 ELISA); type: cell-based, C57BL/6 mice; details: 10 μg/ml MOG35-55, day 25 post EAE induction; FIG. 9
Text: The mouse Th1/Th2 cytokine cytometric bead array kit (BD Biosciences) was used to measure cytokine levels in culture supernatants according to the manufacturer's instructions. The cytokines measured with this kit were: IL-2, IL-4, IL-5, IFN-γ and TNF-α. In addition a mouse IL-17 ELISA set (R&D Systems, Germany) was used to measure cytokine secretion from splenocyte cell culture supernatants according to manufacturer's instructions. The sensitivity of the assay for different cytokines was as follows: IL-2, IL-4 and IL-5=5.0 pg/ml; IFN-γ=2.5 pg/ml; TNF-α=6.3 pg/ml.

MOG35-55-EAE [4] = test: Histopathological analysis of spinal cord and brain after MOG35-55-EAE induction; type: in vivo, C57BL/6 mice
EAE = EAE in animal models (summary statements); type: in vivo; details: unconjugated peptide
Experimental: as §1

[5] = 24 days after EAE induction, FIG. 5

“reduced mannan-PLP139-151: PLP139-151 peptide with a [(Lys-Gly)5] bridge conjugated to mannan, reduced with sodium borohydride” was tested, and the “clinical score (peak)” value (PLP139-151-EAE) was 0.5 and the “induction of / protection from PLP139-151-EAE” value (from here on “induction of / protection”) (PLP139-151-EAE) was “did not induce EAE”.

In the case of “reduced mannan-MOG35-55: MOG35-55 peptide with a [(Lys-Gly)5] bridge conjugated to mannan, reduced with sodium borohydride (MEVGWYRSPFSRVVHLYRNGK; also: (KG)5 bridge, site not given here, conjugated to mannan, reduced with sodium borohydride; UniProt Q61885 63-83, looked up, fragment)”, the proliferation of splenocytes (splenocytes [1]) was “Significant reduced proliferation”, the “protection from MOG35-55-EAE development (clinical score)” value (from here on “protection … (clinical score)”) (MOG35-55-EAE [2]) was “significant protection” and the “protection … (clinical score)” value (MOG35-55-EAE [2]; listed as MOG35-55 peptide conjugated to reduced mannan) was “significant inhibition from disease manifestation”. For the same substance, the “amount of IL-17 secreted by MOG35-55 specific T cells” value (splenocytes [3]) was “reduction”, the “levels of Th1 cytokines (IFN-γ, TNF-α, IL-2)” value (splenocytes [3]) was “reduction” and the “extent of lymphocyte infiltration and demyelination (overall protective effect)” value (MOG35-55-EAE [4]; [5]) was “Intermediate protective effects”.

“H-Glu-Asn-Pro-Val-Val-His-Phe-Phe-Lys-Asn-Ile-Val-Thr-Pro-Arg-Thr-Pro-OH (H-ENPVVHFFKNIVTPRTP-OH) [MBP83-99]” was tested, and the “induction of EAE by the linear peptide” value (EAE) was “induce EAE”.

“oxidized mannan-PLP139-151: PLP139-151 peptide with a [(Lys-Gly)5] bridge conjugated to oxidized mannan via Schiff base formation” was tested, and the “clinical score (peak)” value (PLP139-151-EAE) was 0.5, the “induction of / protection” value (PLP139-151-EAE) was “did not induce EAE” and the “induction of / protection” value (PLP139-151-EAE; listed as PLP139-151-oxidized mannan) was “completely protected”.

With “H-Met-Glu-Val-Gly-Trp-Tyr-Arg-Pro[Ser]-Pro-Phe-Ser-Arg-Val-Val-His-Leu-Tyr-Arg-Asn-Gly-Lys-OH [MOG35-55, reference compound]” the proliferation of splenocytes (splenocytes [1]) was “did not show a reduction”, the “disease course after day 20 of disease progression” value (MOG35-55-EAE [2]; after day 20, FIGS. 3 and 4) was “exacerbated” and the “EAE compared to non vaccinated controls at initial stages of disease” value (MOG35-55-EAE [2]; initial stages, FIGS. 3 and 4) was “significantly lower”. The “susceptibility to MOG-EAE after vaccination with peptide alone” value (MOG35-55-EAE [2]; three prior challenges with unconjugated peptide, FIGS. 3 and 4) was “still susceptible to MOG-EAE”, the “delay of EAE initiation” value (MOG35-55-EAE [2]; versus non-vaccinated controls, FIGS. 3 and 4) was 3 days and the “induction of EAE by the linear peptide” value (EAE) was “induce EAE”.

With “H-His-Ser-Leu-Gly-Lys-Trp-Leu-Gly-His-Pro-Asp-Lys-Phe-OH (H-HSLGKWLGHPDKF-OH) [PLP139-151]” the “induction of EAE by the linear peptide” value (EAE) was “induce EAE”.

In the case of “oxidized mannan-MOG35-55: MOG35-55 peptide with a [(Lys-Gly)5] bridge conjugated to oxidized mannan via Schiff base formation (MEVGWYRSPFSRVVHLYRNGK; also: (Lys-Gly)5 bridge, site not given here, conjugated to oxidized mannan via Schiff base; UniProt Q61885 63-83, looked up, fragment)”, the proliferation of splenocytes (splenocytes [1]) was “Significant reduced proliferation”, the “wasting symptoms (daily weight measurement)” value (MOG35-55-EAE [2]; FIG. 2) was “absence of wasting symptoms” and the “protection … (clinical score)” value (MOG35-55-EAE [2]) was “significant protection”. For the same substance, the “protection … (clinical score)” value (MOG35-55-EAE [2]; listed as MOG35-55 peptide conjugated to oxidized mannan) was “greatest degree of protection”, the “amount of IL-17 secreted by MOG35-55 specific T cells” value (splenocytes [3]) was “reduction” and the “levels of Th1 cytokines (IFN-γ, TNF-α, IL-2)” value (splenocytes [3]) was “reduction”. The “demyelinating lesions in the spinal cord” value (MOG35-55-EAE [4]; [5]) was “no demyelinating lesions”, the “inflammatory infiltration in the spinal cord” value (MOG35-55-EAE [4]; [5]) was “little inflammatory infiltration” and the “inflammatory and demyelination index, brain and spinal cord” value (MOG35-55-EAE [4]; individual mice, FIG. 6) was “marked reduction”.
